Laboratory results: patent publication US12625141B2, “Fluorescent dye, preparation method and uses thereof” (FLUORESCENCE DIAGNOSIS (SHANGHAI) BIOTECH COMPANY LTD., priority 2019, dated 2026)

Key:
[1] = Fluorescence emission in glycerol versus methanol (viscosity response); type: physicochemical; details: for Glycerol/methanol fluorescence intensity ratio: 1×10^-5 M in glycerol and methanol, maximum excitation wavelength of each dye; for Emission (nm): 1×10^-5 M, maximum excitation wavelength of each fluorescent dye
[2] = tested on: RNA aptamer in cells; assay: Labeling intracellular RNA aptamers in cells; type: cell-based; details: for Fluorescence of cells not expressing the RNA aptamer: cells not expressing the RNA aptamer (FIG. 17B); for Fluorescence of cells transcribing the RNA aptamer: cells transcribing the RNA aptamer (FIG. 17A)
[3] = tested on: F30-8Pepper-5 RNA aptamer; assay: Binding to RNA aptamer, optical properties after binding; details: for Em/nm / Ex/nm / ε / QY (−): after binding to RNA aptamer; for QY (−): relative method with Rhodamine 6G as the standard; for Kd: binding to RNA aptamer; for Activation Multiple: fluorescence activation after binding to RNA aptamer
[4] = Fluorescence emission at different viscosity conditions in diethanol-glycerol mixed solution; type: physicochemical; details: 1×10^−5 M, excitation at 480 nm
[5] = tested on: ACTB-4Pepper RNA aptamer (skeleton protein mRNA) in 293T/17 cell line; assay: Labeling intracellular mRNA, flow detection; type: cell-based; details: 0.2 μM in PBS, incubated for 5 minutes
Description: FIGS. 18A and 18B are the application of molecular rotors III-3, III-43 in labeling intracellular mRNA.

| Structure (SMILES) | Glycerol/methanol fluorescence intensity ratio [1] | Emission (nm) [1] [nm] | also measured |
| --- | --- | --- | --- |
| CN(C)c1ccc(/C=C(\C#N)c2ccc(C#N)cc2)cc1 [III-1] | 990 | 530 | – |
| CCN(CC)c1ccc(/C=C(\C#N)c2ccc(C#N)cc2)cc1 [III-2] | 870 | 530 | – |
| CN(CCO)c1ccc(/C=C(\C#N)c2ccc(C#N)cc2)cc1 [III-3] | 1025 | 530 | Fluorescence of cells not expressing the RNA aptamer [2]: no fluorescence; Fluorescence of cells transcribing the RNA aptamer [2]: bright fluorescence; Em/nm [3]: 530 nm; Ex/nm [3]: 485 nm; ε [3]: 65300 M⁻¹ cm⁻¹; QY (−) [3]: 0.66; Kd [3]: 3.5 nM; Activation Multiple [3]: 3595; Sensitivity of fluorescence intensity to viscosity [4]: sensitive to viscosity; Background fluorescence in cells [5]: no obvious background fluorescence; Labeling of skeleton protein mRNA in cell lines expressing target RNA [5]: could specifically mark the mRNA of skeleton protein |
| CN(C)CCN(C)c1ccc(/C=C(\C#N)c2ccc(C#N)cc2)cc1 [III-4] | 892 | 521 | Fluorescence of cells not expressing the RNA aptamer [2]: no fluorescence; Fluorescence of cells transcribing the RNA aptamer [2]: bright fluorescence; Em/nm [3]: 514 nm; Ex/nm [3]: 458 nm; ε [3]: 44100 M⁻¹ cm⁻¹; QY (−) [3]: 0.45; Activation Multiple [3]: 4748; Sensitivity of fluorescence intensity to viscosity [4]: sensitive to viscosity |
| CN(CCO)c1cnc(/C=C(\C#N)c2ccc(C#N)cc2)cn1 [III-6] | 1148 | 490 | Fluorescence of cells not expressing the RNA aptamer [2]: no fluorescence; Fluorescence of cells transcribing the RNA aptamer [2]: bright fluorescence; Em/nm [3]: 497 nm; Ex/nm [3]: 435 nm; ε [3]: 54700 M⁻¹ cm⁻¹; QY (−) [3]: 0.57; Kd [3]: 6.7 nM; Activation Multiple [3]: 16601 |
| CN(C)CCN(C)c1cnc(/C=C(\C#N)c2ccc(C#N)cc2)cn1 [III-7] | 977 | 485 | Fluorescence of cells not expressing the RNA aptamer [2]: no fluorescence; Fluorescence of cells transcribing the RNA aptamer [2]: bright fluorescence; Em/nm [3]: 485 nm; Ex/nm [3]: 443 nm; ε [3]: 49100 M⁻¹ cm⁻¹; QY (−) [3]: 0.42; Kd [3]: 8 nM; Activation Multiple [3]: 691 |
| CN(CCO)c1ccc(/C=C(\C#N)c2ccc(C#N)cc2)cn1 [III-8] | 1168 | 495 | – |
| CCN(CC)CCN(C)c1ccc(/C=C(\C#N)c2ccc(C#N)cc2)cn1 [III-9] | 920 | 490 | – |
| CN(C)c1ccc(/C=C(\C#N)c2ccc(C#N)cc2)nc1 [III-10] | 1620 | 520 | – |
| CN(CCO)c1ncc(/C=C(\C#N)c2ccc(C#N)cc2)cn1 [III-11] | 869 | 470 | – |
| CN(C)CCN(C)c1cnc(/C=C(\C#N)c2ccc(C#N)cc2)nc1 [III-12] | 855 | 542 | – |
| CN(CCO)c1ccc(/C=C(\C#N)c2ccc(C#N)cn2)cc1 [III-13] | 752 | 545 | – |
| CN(CCO)c1ccc(/C=C(\C#N)c2cnc(C#N)cn2)cc1 [III-14] | 785 | 550 | – |
| N#C/C(=C\c1cc2c3c(c1)CCCN3CCC2)c1ccc(C#N)cc1 [III-15] | 1011 | 561 | – |
| CN1CCc2cc(/C=C(\C#N)c3ccc(C#N)cc3)ccc21 [III-16] | 491 | 555 | – |
| CNc1ccc2cc(/C=C(\C#N)c3ccc(C#N)cc3)sc2c1 [III-17] | 828 | 587 | – |
| CN(CCO)c1ccc2cc(/C=C(\C#N)c3ccc(C#N)cc3)sc2c1 [III-18] | 978 | 595 | Fluorescence of cells not expressing the RNA aptamer [2]: no fluorescence; Fluorescence of cells transcribing the RNA aptamer [2]: bright fluorescence; Em/nm [3]: 599 nm; Ex/nm [3]: 515 nm; ε [3]: 54400 M⁻¹ cm⁻¹; QY (−) [3]: 0.43; Kd [3]: 18 nM; Activation Multiple [3]: 708 |

| Structure (SMILES) | Glycerol/methanol fluorescence intensity ratio [1] | Emission (nm) [1] [nm] | also measured |
| --- | --- | --- | --- |
| CN(C)c1cc2sc(/C=C(\C#N)c3ccc(C#N)cc3)cc2s1 [III-19] | 991 | 620 | – |
| CCN(CC)c1cc2sc(/C=C(\C#N)c3ccc(C#N)cc3)cc2s1 [III-20] | 836 | 620 | – |
| CN(CCO)c1cc2sc(/C=C(\C#N)c3ccc(C#N)cc3)cc2s1 [III-21] | 544 | 620 | Fluorescence of cells not expressing the RNA aptamer [2]: no fluorescence; Fluorescence of cells transcribing the RNA aptamer [2]: bright fluorescence; Em/nm [3]: 620 nm; Ex/nm [3]: 577 nm; ε [3]: 10000 M⁻¹ cm⁻¹; QY (−) [3]: 0.58; Kd [3]: 6.1 nM; Activation Multiple [3]: 12600 |
| CN(C)c1ccc(-c2ccc(/C=C(\C#N)c3ccc(C#N)cc3)cc2)cc1 [III-22] | 989 | 650 | – |
| CN(C)c1ccc(-c2ccc(/C=C(\C#N)c3ccc(C#N)cc3)s2)cc1 [III-23] | 687 | 661 | – |
| N#C/C(=C\c1ccc(-c2ccc(N3CCOCCOCCOCCOCC3)cc2)s1)c1ccc(C#N)cc1 [III-24] | 596 | 662 | – |
| CCN(CC)c1ccc(-c2ccc(/C=C(\C#N)c3ccc(C#N)cc3)s2)s1 [III-25] | 783 | 678 | – |
| CN(C)c1ccc(-c2ccc(/C=C(\C#N)c3ccc(C(=O)O)cc3)s2)s1 [III-26] | 368 | 676 | – |
| CN(CCO)c1cc2sc3cc(/C=C(\C#N)c4ccc(C#N)cc4)sc3c2s1 [III-28] | 559 | 662 | Sensitivity of fluorescence intensity to viscosity [4]: sensitive to viscosity |
| CCOC(=O)c1ccc(/C(C#N)=C/c2cc3sc4cc(N(C)C)sc4c3s2)cc1 [III-29] | 684 | 665 | – |
| CN(C)c1cc2sc3cc(/C=C(\C#N)c4ccc([S+](C)[O-])cc4)sc3c2s1 (centres unmarked) [III-30] | 756 | 660 | – |
| CN(CCO)c1cc2c(s1)-c1sc(/C=C(\C#N)c3ccc(S(N)(=O)=O)cc3)cc1[Si]2(C)C [III-32] | 817 | 690 | – |
| CN(CCO)c1cc2c(s1)-c1sc(/C=C(\C#N)c3ccc(C#N)cc3)cc1[Si]2(C)C [III-33] | 691 | 705 | – |
| CN(CCO)c1cc2c(s1)-c1sc(/C=C(\C#N)c3ccc(C(N)=O)cc3)cc1C2(C)C [III-34] | 489 | 689 | Sensitivity of fluorescence intensity to viscosity [4]: sensitive to viscosity |
| COCCOCCOCCOCCOCCN(C)c1cc2c(s1)-c1sc(/C=C(\C#N)c3ccc(C#N)cc3)cc1C2(C)C [III-35] | 710 | 690 | – |
| CN(CCO)c1ccc(/C=C(\C#N)c2nc3ccccc3s2)cc1 [III-43, reference compound] | – | – | Background fluorescence in cells [5]: higher than III-3; Labeling of skeleton protein mRNA in cell lines expressing target RNA [5]: unclear whether ACTB was expressed |
